Experimental data: PMC10311525, “Restricting Promiscuity of Plant Flavonoid 3′-Hydroxylase and 4′-O-Methyltransferase Improves the Biosynthesis of (2S)-Hesperetin in E. coli” (Journal of Agricultural and Food Chemistry, 2023)

Experiments:
Experiment in all cases: whole-cell conversion, HPLC
Format in all cases: cell-based
MpOMT [1] = target: T1, MpOMT (Mentha x piperita, UniProt Q6VMV8, S142A); conditions: 100 mg/L fed, 12 h, 23 °C; product (2S)-hesperetin
T1 construct: gene OMT4

MpOMT [2] = target: T2, MpOMT (Mentha x piperita, UniProt Q6VMV8, F133A); conditions: 100 mg/L fed, 12 h, 23 °C; product (2S)-hesperetin
T2 construct: gene OMT4

trThF3′H with CPR = target: T3, trThF3′H with CPR (Tricyrtis hirta, UniProt B9A9Y6); conditions: 100 mg/L fed, 12 h, 23 °C; product (2S)-eriodictyol; full-length CPR co-expressed
T3 construct: gene F3'H; 24-aa N-terminally truncated F3'H co-expressed with full-length Arabidopsis thaliana CPR from pETDuet-1 (pGH10) in E. coli BL21(DE3); whole-cell conversion; with NADPH--cytochrome P450 reductase 2 (Arabidopsis thaliana)
T3 sequence (B9A9Y6 25-505): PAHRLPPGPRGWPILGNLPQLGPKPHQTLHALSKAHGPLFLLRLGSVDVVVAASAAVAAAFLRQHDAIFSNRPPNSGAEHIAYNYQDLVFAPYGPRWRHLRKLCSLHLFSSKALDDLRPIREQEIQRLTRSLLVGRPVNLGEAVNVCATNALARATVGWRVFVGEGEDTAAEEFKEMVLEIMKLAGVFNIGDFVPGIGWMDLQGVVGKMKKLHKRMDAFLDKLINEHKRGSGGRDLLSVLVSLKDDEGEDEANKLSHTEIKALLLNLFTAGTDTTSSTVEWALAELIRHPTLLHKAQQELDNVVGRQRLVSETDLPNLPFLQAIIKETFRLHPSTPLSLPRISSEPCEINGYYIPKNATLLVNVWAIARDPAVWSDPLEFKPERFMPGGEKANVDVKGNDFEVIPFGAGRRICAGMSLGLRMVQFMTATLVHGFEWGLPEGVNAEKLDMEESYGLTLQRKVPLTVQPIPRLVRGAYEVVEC
T3 sequence (Q9SUM3 whole entry partner, the tested form may be a part): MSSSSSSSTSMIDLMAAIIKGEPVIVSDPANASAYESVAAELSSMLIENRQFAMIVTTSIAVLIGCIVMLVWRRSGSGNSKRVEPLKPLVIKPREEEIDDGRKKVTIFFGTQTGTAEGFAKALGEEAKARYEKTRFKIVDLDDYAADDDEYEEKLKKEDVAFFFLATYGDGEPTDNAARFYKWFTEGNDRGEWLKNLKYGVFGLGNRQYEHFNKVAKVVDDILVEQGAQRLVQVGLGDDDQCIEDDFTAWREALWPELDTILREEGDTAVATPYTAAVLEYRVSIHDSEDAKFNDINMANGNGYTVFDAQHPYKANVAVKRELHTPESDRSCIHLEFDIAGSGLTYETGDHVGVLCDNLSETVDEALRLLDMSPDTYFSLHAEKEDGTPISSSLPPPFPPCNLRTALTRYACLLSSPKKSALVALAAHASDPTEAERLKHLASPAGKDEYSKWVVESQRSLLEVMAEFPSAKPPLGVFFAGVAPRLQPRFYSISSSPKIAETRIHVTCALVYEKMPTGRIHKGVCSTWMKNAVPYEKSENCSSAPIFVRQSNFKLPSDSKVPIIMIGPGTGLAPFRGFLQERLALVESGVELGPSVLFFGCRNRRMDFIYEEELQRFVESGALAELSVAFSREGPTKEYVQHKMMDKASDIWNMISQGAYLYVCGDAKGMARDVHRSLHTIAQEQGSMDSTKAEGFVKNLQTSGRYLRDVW

T1 sequence (Q6VMV8 whole entry S142A): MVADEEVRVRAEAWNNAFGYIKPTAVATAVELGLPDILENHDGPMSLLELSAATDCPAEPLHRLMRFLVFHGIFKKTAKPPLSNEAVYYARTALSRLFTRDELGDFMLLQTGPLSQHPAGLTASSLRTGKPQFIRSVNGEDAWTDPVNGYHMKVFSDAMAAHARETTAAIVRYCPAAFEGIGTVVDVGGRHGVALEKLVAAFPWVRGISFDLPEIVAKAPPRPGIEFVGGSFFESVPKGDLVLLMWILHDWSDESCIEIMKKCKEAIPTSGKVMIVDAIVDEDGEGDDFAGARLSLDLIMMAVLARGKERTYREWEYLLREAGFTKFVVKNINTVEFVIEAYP
T2 sequence (Q6VMV8 whole entry F133A): as the sequence (Q6VMV8 whole entry S142A) above, with F133A, A142S counted along it

**Q.** With O=C1C[C@@H](c2ccc(O)c(O)c2)Oc2cc(O)cc(O)c21 [(2S)-eriodictyol] as the compound, how does the “whole-cell conversion, HPLC” value (MpOMT [1]) read?
**A.** Its value is “three mutants (F115A, F133A, and S142A), which displayed significantly higher conversion rates”.

**Q.** What about the “whole-cell conversion, HPLC” value (MpOMT [2]) of the same compound?
**A.** Its value is “three mutants (F115A, F133A, and S142A), which displayed significantly higher conversion rates”.

**Q.** For O=C1C[C@@H](c2ccc(O)cc2)Oc2cc(O)cc(O)c21 [(2S)-naringenin], which “whole-cell conversion, HPLC” value (trThF3′H with CPR) is on record?
**A.** Its value is “the one harboring trThF3′H and CPR exhibited the highest (2S)-eriodictyol production”.
